Measurements as given in patent US20210070748A1, “INHIBITORS OF BRUTONS TYROSINE KINASE” (Pharmacyclics LLC, priority 2015, published 2021).
Where two headings read alike, the source gives them in different places.

Columns and labels:
Assay type in all cases: biochemical
[1] = target: LCK (Homo sapiens, UniProt P06239); experiment: Inhibition of a panel of kinases, in vitro HotSpot kinase assay: LCK; details: Table 10, Formula A-I; 1 μM ATP; read-out: LCK (IC50)
[2] = target: T1, BTK-WT (Homo sapiens, UniProt Q06187); experiment: Btk in vitro inhibitory activity (one of Method A TR-FRET, Method B electrophoretic mobility shift, Method C radiometric filter binding); details: read-out: BTK-WT (IC50)
T1 construct: purified from insect cells as a full-length construct containing an N-terminal 6X-His tag; His6 (N); made in house; host or cells: insect cells (baculovirus Sf21 in Method B)
T1 sequence (Q06187 whole entry): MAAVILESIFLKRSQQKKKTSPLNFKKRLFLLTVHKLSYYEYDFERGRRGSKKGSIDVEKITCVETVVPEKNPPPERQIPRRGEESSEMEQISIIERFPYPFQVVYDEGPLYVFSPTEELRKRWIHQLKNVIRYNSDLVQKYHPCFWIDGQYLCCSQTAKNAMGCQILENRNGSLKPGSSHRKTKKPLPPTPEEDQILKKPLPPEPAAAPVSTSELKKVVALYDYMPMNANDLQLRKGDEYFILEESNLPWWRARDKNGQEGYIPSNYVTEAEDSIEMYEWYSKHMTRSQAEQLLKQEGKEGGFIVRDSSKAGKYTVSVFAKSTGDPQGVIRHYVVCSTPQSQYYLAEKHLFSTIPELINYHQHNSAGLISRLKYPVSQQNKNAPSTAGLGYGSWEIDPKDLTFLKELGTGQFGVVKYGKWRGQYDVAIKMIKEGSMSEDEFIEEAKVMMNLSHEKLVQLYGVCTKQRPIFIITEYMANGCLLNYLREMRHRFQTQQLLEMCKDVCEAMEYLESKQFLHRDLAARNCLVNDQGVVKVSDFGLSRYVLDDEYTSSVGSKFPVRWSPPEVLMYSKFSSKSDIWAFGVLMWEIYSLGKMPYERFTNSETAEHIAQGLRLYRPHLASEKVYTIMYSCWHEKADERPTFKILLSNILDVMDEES

[3] = target: T2, JAK3 (Homo sapiens, UniProt P52333); experiment: Inhibition of a panel of kinases, in vitro HotSpot kinase assay: JAK3; details: 1 μM ATP, read-out: JAK3 (IC50)
T2 sequence (P52333 1-1124): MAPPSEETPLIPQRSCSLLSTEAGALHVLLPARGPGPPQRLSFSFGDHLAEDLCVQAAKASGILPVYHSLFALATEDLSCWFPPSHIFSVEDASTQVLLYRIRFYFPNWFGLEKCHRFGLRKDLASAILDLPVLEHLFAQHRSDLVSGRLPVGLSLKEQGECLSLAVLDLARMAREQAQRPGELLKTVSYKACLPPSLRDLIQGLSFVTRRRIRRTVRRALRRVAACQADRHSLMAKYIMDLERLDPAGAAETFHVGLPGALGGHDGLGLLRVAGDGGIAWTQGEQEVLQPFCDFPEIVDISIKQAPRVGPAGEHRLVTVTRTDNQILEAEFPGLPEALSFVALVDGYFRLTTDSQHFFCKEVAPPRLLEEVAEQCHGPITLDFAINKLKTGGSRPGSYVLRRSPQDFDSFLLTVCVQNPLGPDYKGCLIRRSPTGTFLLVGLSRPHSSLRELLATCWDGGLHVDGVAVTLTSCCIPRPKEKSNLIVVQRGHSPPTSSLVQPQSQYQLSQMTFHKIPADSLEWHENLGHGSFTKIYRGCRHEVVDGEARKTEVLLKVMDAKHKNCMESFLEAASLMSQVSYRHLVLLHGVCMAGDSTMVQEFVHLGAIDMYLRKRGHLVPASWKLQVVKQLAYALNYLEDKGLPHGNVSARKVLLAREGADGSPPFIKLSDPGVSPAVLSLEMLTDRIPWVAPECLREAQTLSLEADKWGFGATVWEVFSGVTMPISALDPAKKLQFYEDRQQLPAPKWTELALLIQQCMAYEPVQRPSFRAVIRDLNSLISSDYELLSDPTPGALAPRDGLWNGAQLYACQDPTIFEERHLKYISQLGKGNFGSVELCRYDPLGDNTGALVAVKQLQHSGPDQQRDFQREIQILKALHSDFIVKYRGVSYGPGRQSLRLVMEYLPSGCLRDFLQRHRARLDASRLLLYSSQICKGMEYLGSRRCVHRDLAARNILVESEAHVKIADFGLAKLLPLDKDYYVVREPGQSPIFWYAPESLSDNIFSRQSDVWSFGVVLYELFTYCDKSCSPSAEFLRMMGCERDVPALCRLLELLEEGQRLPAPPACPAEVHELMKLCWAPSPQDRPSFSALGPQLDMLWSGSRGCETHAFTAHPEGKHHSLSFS

Chain of LCK (P06239 whole entry): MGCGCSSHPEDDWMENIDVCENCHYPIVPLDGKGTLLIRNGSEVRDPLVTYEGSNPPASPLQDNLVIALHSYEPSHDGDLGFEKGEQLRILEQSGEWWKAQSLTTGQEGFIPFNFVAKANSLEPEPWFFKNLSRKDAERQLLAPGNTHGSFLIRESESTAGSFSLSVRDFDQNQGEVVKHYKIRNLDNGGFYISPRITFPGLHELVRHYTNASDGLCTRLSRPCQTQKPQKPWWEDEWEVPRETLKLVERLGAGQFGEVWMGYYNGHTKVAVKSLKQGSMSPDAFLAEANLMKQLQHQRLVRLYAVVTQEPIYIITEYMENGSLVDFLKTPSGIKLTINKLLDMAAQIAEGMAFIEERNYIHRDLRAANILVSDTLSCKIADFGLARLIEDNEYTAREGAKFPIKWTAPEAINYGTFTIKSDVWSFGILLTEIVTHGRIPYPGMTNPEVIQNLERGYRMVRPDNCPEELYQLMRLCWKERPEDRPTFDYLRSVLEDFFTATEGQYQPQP

| Structure (SMILES) | IC50 ([2]; Table 10, Formula A-I) [µM] | IC50 ([3]; Table 10, Formula A-I) [µM] | also measured |
| --- | --- | --- | --- |
| NC(=O)c1ncc(N2CCC[C@@H](NC(=O)Nc3cccnc3)C2)nc1Nc1ccc(C2CCN(C3CCCC3)CC2)cc1 [Example A-1, 3-{[4-(1-cyclopentylpiperidin-4-yl)phenyl]amino)-5-[(3R)-3-([(pyridin-3-yl)carbamoyl]amino}piperidin-1-yl]pyrazine-2-carboxamide] | ≤ 0.1 |  | IC50 [1]: < 0.1 µM |
| NC(=O)c1ncc(N2CCC[C@@H](NC(=O)NC3CCCCC3)C2)nc1Nc1ccc(C2CCN(C3CCCC3)CC2)cc1 [Example A-3, 5-[(3R)-3-[(cyclohexylcarbamoyl)amino]piperidin-1-yl]-3-{[4-(1-cyclopentylpiperidin-4-yl)phenyl]amino}pyrazine-2-carboxamide] | ≤ 0.1 |  | IC50 [1]: 0.1 to 1 µM |
| Cc1cc(Nc2nc(N3CCC[C@@H](NC(=O)Nc4ccccc4)C3)cnc2C(N)=O)sn1 [Example A-9] | ≤ 0.1 |  | IC50 [1]: < 0.1 µM |
| Cc1cc(Nc2nc(N3CCC[C@@H](NC(=O)Nc4ccc(F)cc4)C3)cnc2C(N)=O)sn1 [Example A-14] | ≤ 0.1 |  | IC50 [1]: 0.1 to 1 µM |
| COc1ccc(NC(=O)N[C@@H]2CCCN(c3cnc(C(N)=O)c(Nc4cc(C)ns4)n3)C2)cc1 [Example A-15, 5-[(3R)-3-{[(4-methoxyphenyl)carbamoyl]amino}piperidin-1-yl]-3-[(3-methyl-1,2-thiazol-5-yl)amino]pyrazine-2-carboxamide] | ≤ 0.1 |  | IC50 [1]: 0.1 to 1 µM |
| COc1cccc(NC(=O)N[C@@H]2CCCN(c3cnc(C(N)=O)c(Nc4cc(C)ns4)n3)C2)c1 [Example A-16, 5-[(3R)-3-{[(3-methoxyphenyl)carbamoyl]amino}piperidin-1-yl]-3-[(3-methyl-1,2-thiazol-5-yl)amino]pyrazine-2-carboxamide] | ≤ 0.1 |  | IC50 [1]: 0.1 to 1 µM |
| Cc1cc(Nc2cc(N3CCC[C@@H](NC(=O)c4ccc(C(C)C)cc4)C3)cnc2C(N)=O)sn1 [Example A-63, 3-[(3-methyl-1,2-thiazol-5-yl)amino]-5-[(3R)-3-[4-(propan-2-yl)benzamido]piperidin-1-yl]pyridine-2-carboxamide] | ≤ 0.1 | > 10 |  |
| CC(C)c1ccc(C(=O)N[C@@H]2CCCN(c3cnc(C(N)=O)c(Nc4ccccc4)n3)C2)cc1 [Example A-65, 3-(phenylamino)-5-[(3R)-3-[4-(propan-2-yl)benzamido]piperidin-1-yl]pyrazine-2-carboxamide] | 1 to 10 | > 10 |  |
| Cc1cc(Nc2c(C(N)=O)ncc(N3CCC[C@@H](NC(=O)c4ccc(N(C)C)cc4)C3)c2C)sn1 [Example A-66, 5-[(3R)-3-[4-(dimethylamino)benzamido]piperidin-1-yl]-4-methyl-3-[(3-methyl-1,2-thiazol-5-yl)amino]pyridine-2-carboxamide] | 1 to 10 | > 10 |  |
| Cc1cc(Nc2nc(N3CCC[C@@H](NC(=O)c4ccc(N(C)C)cc4)[C@@H]3CO)cnc2C(N)=O)sn1 [Example A-69, 5-[(2R,3R)-3-[4-(dimethylamino)benzamido]-2-(hydroxymethyl)piperidin-1-yl]-3-[(3-methyl-1,2-thiazol-5-yl)amino]pyrazine-2-carboxamide] | 0.1 to 1 | > 10 |  |
| Cc1cc(Nc2nc(N3CCC[C@H](NC(=O)c4ccc(N(C)C)cc4)[C@H]3CO)cnc2C(N)=O)sn1 [Example A-70, 5-[(2S,3S)-3-[4-(dimethylamino)benzamido]-2-(hydroxymethyl)piperidin-1-yl]-3-[(3-methyl-1,2-thiazol-5-yl)amino]pyrazine-2-carboxamide] | 0.1 to 1 | > 10 |  |
| CC(C)c1ccc(C(=O)N[C@@H]2CCCN(c3cnc(C(N)=O)c(Nc4ccccn4)n3)C2)cc1 [Example A-71, 5-[(3R)-3-[4-(propan-2-yl)benzamido]piperidin-1-yl]-3-[(pyridin-2-yl)amino]pyrazine-2-carboxamide] | 1 to 10 | 1 to 10 |  |
| CCN1N=CC2C=C(C(=O)N[C@@H]3CCCN(c4cnc(C(N)=O)c(Nc5cc(C)ns5)n4)C3)C=CC21 (stereo partly drawn) [Example A-72, N-[(3R)-1-{5-carbamoyl-6-[(3-methyl-1,2-thiazol-5-yl)amino]pyrazin-2-yl}piperidin-3-yl]-1-ethyl-3a,7a-dihydro-1H-indazole-5-carboxamide] | ≤ 0.1 | 1 to 10 |  |
| Cc1cc(Nc2nc(N3CCC[C@@H](NC(=O)c4ccc(C5CC5)c(F)c4)C3)cnc2C(N)=O)sn1 [Example A-73, 5-[(3R)-3-(4-cyclopropyl-3-fluorobenzamido)piperidin-1-yl]-3-[(3-methyl-1,2-thiazol-5-yl)amino]pyrazine-2-carboxamide] | ≤ 0.1 | 1 to 10 |  |
| Cc1cc(Nc2nc(N3CCC[C@@H](NC(=O)c4ccc(C5CC5)cc4F)[C@H]3C)cnc2C(N)=O)sn1 [Example A-74, 5-[(2R,3R)-3-(4-cyclopropyl-2-fluorobenzamido)-2-methylpiperidin-1-yl]-3-[(3-methyl-1,2-thiazol-5-yl)amino]pyrazine-2-carboxamide] | ≤ 0.1 | 1 to 10 |  |
| Cc1cc(Nc2nc(N3CCCC(CNC(=O)N(C)C)C3)cnc2C(N)=O)sn1 (stereo not drawn) [Example A-78, 5-(3-{[(dimethylcarbamoyl)amino]methyl}piperidin-1-yl)-3-[(3-methyl-1,2-thiazol-5-yl)amino]pyrazine-2-carboxamide] | ≤ 0.1 | 1 to 10 |  |
| Cc1cc(Nc2nc(N3CCCC(CNC(=O)c4ccccc4)C3)cnc2C(N)=O)sn1 (stereo not drawn) [Example A-79, 3-[(3-methyl-1,2-thiazol-5-yl)amino]-5-{3-[(phenylformamido)methyl]piperidin-1-yl}pyrazine-2-carboxamide] | ≤ 0.1 | 1 to 10 |  |
| Cc1cc(Nc2nc(N3CCCC(CNC(=O)c4ccc(N(C)C)cc4)C3)cnc2C(N)=O)sn1 (stereo not drawn) [Example A-80] | ≤ 0.1 | 1 to 10 |  |
| C[C@@H]1[C@H](NC(=O)c2ccc(C3CC3)cc2F)CCCN1c1cnc(C(N)=O)c(Nc2ccc(N3CCN(C)CC3)cc2)n1 [Example A-81, 5-[(2R,3R)-3-(4-cyclopropyl-2-fluorobenzamido)-2-methylpiperidin-1-yl]-3-{[4-(4-methylpiperazin-1-yl)phenyl]amino}pyrazine-2-carboxamide] | ≤ 0.1 | 1 to 10 |  |
| CC(C)c1ccc(C(=O)N[C@@H]2CCCN(c3cnc(C(N)=O)c(Nc4ccc(CN(C)C)cc4)n3)C2)cc1 [Example A-83, 3-({4-[(dimethylamino)methyl]phenyl}amino)-5-[(3R)-3-[4-(propan-2-yl)benzamido]piperidin-1-yl]pyrazine-2-carboxamide] | ≤ 0.1 | 1 to 10 |  |
| CN(C)c1ccc(C(=O)N[C@H]2CC[C@H](Nc3cnc(C(N)=O)c(Nc4ccc5ncccc5c4)n3)CC2)cc1 [Example B-2] |  |  | IC50 ([3]; Table 11, Formula B-I): > 10 µM; IC50 ([2]; Table 11, Formula B-I): 0.1 to 1 µM |
| Cc1cc(Nc2nc(NC3CCC(NC(=O)N(C)C)CC3)cnc2C(N)=O)sn1 (stereo not drawn) [Example B-3, 5-({4-[(dimethylcarbamoyl)amino]cyclohexyl}amino)-3-[(3-methyl-1,2-thiazol-5-yl)amino]pyrazine-2-carboxamide] |  |  | IC50 ([3]; Table 11, Formula B-I): < 0.1 µM; IC50 ([2]; Table 11, Formula B-I): ≤ 0.1 µM |
| Cc1cc(Nc2nc(NC3CCC(NC(=O)c4ccccc4)CC3)cnc2C(N)=O)sn1 (stereo not drawn) [Example B-4, 5-[(4-benzamidocyclohexyl)amino]-3-[(3-methyl-1,2-thiazol-5-yl)amino]pyrazine-2-carboxamide] |  |  | IC50 ([3]; Table 11, Formula B-I): < 0.1 µM; IC50 ([2]; Table 11, Formula B-I): ≤ 0.1 µM |
| Cc1cc(Nc2nc(N(C)[C@H]3CCCN(C(=O)c4ccc(N(C)C)cc4)C3)cnc2C(N)=O)sn1 [Example C-9, 5-{[(3S)-1-[4-(dimethylamino)benzoyl]piperidin-3-yl](methyl)amino}-3-[(3-methyl-1,2-thiazol-5-yl)amino]pyrazine-2-carboxamide] |  |  | IC50 ([3]; Table 12, Formula C-I): > 10 µM; IC50 ([2]; Table 12, Formula C-I): 1 to 10 µM |
